Measurements taken from the NIST ThermoML archive (doi:10.1016/j.jct.2018.08.005).
± gives the expanded uncertainty stated by the source.

Assay: molar heat capacity at constant pressure; xn = mol fraction of the nth substance listed
Details: 100 kPa, Liquid, DSC

## CCOC(F)(C(F)(F)C(F)(F)C(F)(F)F)C(F)(C(F)(F)F)C(F)(F)F (stereo not given) [2-trifluoromethyl-3-ethoxydodecafluorohexane] + CC(C)OC(C)C
290.5 K, x1 = 0.25
  molar heat capacity at constant pressure: 277.26 ± 16 J/K/mol
290.5 K, x1 = 0.375
  molar heat capacity at constant pressure: 310.54 ± 18 J/K/mol
290.5 K, x1 = 0.5
  molar heat capacity at constant pressure: 342.56 ± 20 J/K/mol
290.5 K, x1 = 0.625
  molar heat capacity at constant pressure: 375.58 ± 21 J/K/mol
290.5 K, x1 = 0.75
  molar heat capacity at constant pressure: 407.39 ± 23 J/K/mol
295.44 K, x1 = 0.25
  molar heat capacity at constant pressure: 279.61 ± 16 J/K/mol
295.44 K, x1 = 0.375
  molar heat capacity at constant pressure: 312.95 ± 18 J/K/mol
295.44 K, x1 = 0.5
  molar heat capacity at constant pressure: 345.14 ± 20 J/K/mol
295.44 K, x1 = 0.625
  molar heat capacity at constant pressure: 378.55 ± 22 J/K/mol
295.44 K, x1 = 0.75
  molar heat capacity at constant pressure: 410.41 ± 24 J/K/mol
297.91 K, x1 = 1
  molar heat capacity at constant pressure: 466.29 ± 27 J/K/mol
300.38 K, x1 = 0.25
  molar heat capacity at constant pressure: 281.77 ± 16 J/K/mol
300.38 K, x1 = 0.375
  molar heat capacity at constant pressure: 315.36 ± 18 J/K/mol
300.38 K, x1 = 0.5
  molar heat capacity at constant pressure: 347.98 ± 20 J/K/mol
300.38 K, x1 = 0.625
  molar heat capacity at constant pressure: 381.52 ± 22 J/K/mol
300.38 K, x1 = 0.75
  molar heat capacity at constant pressure: 413.77 ± 24 J/K/mol
305.32 K, x1 = 0.25
  molar heat capacity at constant pressure: 284.47 ± 16 J/K/mol
305.32 K, x1 = 0.375
  molar heat capacity at constant pressure: 317.99 ± 18 J/K/mol
305.32 K, x1 = 0.5
  molar heat capacity at constant pressure: 350.3 ± 20 J/K/mol
305.32 K, x1 = 0.625
  molar heat capacity at constant pressure: 384.2 ± 22 J/K/mol
305.32 K, x1 = 0.75
  molar heat capacity at constant pressure: 416.46 ± 24 J/K/mol
307.79 K, x1 = 1
  molar heat capacity at constant pressure: 472.92 ± 27 J/K/mol
310.26 K, x1 = 0.25
  molar heat capacity at constant pressure: 287.71 ± 16 J/K/mol
310.26 K, x1 = 0.375
  molar heat capacity at constant pressure: 320.4 ± 18 J/K/mol
310.26 K, x1 = 0.5
  molar heat capacity at constant pressure: 353.14 ± 20 J/K/mol
310.26 K, x1 = 0.625
  molar heat capacity at constant pressure: 387.17 ± 22 J/K/mol
310.26 K, x1 = 0.75
  molar heat capacity at constant pressure: 419.82 ± 24 J/K/mol
315.2 K, x1 = 0.25
  molar heat capacity at constant pressure: 290.42 ± 17 J/K/mol
315.2 K, x1 = 0.375
  molar heat capacity at constant pressure: 322.81 ± 18 J/K/mol
315.2 K, x1 = 0.5
  molar heat capacity at constant pressure: 355.98 ± 20 J/K/mol
315.2 K, x1 = 0.625
  molar heat capacity at constant pressure: 390.14 ± 22 J/K/mol
315.2 K, x1 = 0.75
  molar heat capacity at constant pressure: 422.85 ± 24 J/K/mol
317.66 K, x1 = 1
  molar heat capacity at constant pressure: 479.54 ± 27 J/K/mol
320.13 K, x1 = 0.25
  molar heat capacity at constant pressure: 293.12 ± 17 J/K/mol
320.13 K, x1 = 0.375
  molar heat capacity at constant pressure: 325.66 ± 19 J/K/mol
320.13 K, x1 = 0.5
  molar heat capacity at constant pressure: 358.82 ± 21 J/K/mol
320.13 K, x1 = 0.625
  molar heat capacity at constant pressure: 393.11 ± 23 J/K/mol
320.13 K, x1 = 0.75
  molar heat capacity at constant pressure: 425.87 ± 25 J/K/mol
325.07 K, x1 = 0.25
  molar heat capacity at constant pressure: 295.64 ± 17 J/K/mol
325.07 K, x1 = 0.375
  molar heat capacity at constant pressure: 328.29 ± 19 J/K/mol
325.07 K, x1 = 0.5
  molar heat capacity at constant pressure: 361.66 ± 21 J/K/mol
325.07 K, x1 = 0.625
  molar heat capacity at constant pressure: 396.08 ± 23 J/K/mol
325.07 K, x1 = 0.75
  molar heat capacity at constant pressure: 428.9 ± 25 J/K/mol
327.54 K, x1 = 1
  molar heat capacity at constant pressure: 486.58 ± 28 J/K/mol
330.01 K, x1 = 0.25
  molar heat capacity at constant pressure: 298.16 ± 17 J/K/mol
330.01 K, x1 = 0.375
  molar heat capacity at constant pressure: 330.92 ± 19 J/K/mol
330.01 K, x1 = 0.5
  molar heat capacity at constant pressure: 364.5 ± 21 J/K/mol
330.01 K, x1 = 0.625
  molar heat capacity at constant pressure: 399.35 ± 23 J/K/mol
330.01 K, x1 = 0.75
  molar heat capacity at constant pressure: 432.26 ± 25 J/K/mol
334.95 K, x1 = 0.25
  molar heat capacity at constant pressure: 300.69 ± 17 J/K/mol
334.95 K, x1 = 0.375
  molar heat capacity at constant pressure: 333.77 ± 19 J/K/mol
334.95 K, x1 = 0.5
  molar heat capacity at constant pressure: 367.08 ± 21 J/K/mol
334.95 K, x1 = 0.625
  molar heat capacity at constant pressure: 402.32 ± 23 J/K/mol
334.95 K, x1 = 0.75
  molar heat capacity at constant pressure: 434.61 ± 25 J/K/mol
337.42 K, x1 = 1
  molar heat capacity at constant pressure: 494.03 ± 28 J/K/mol
339.89 K, x1 = 0.25
  molar heat capacity at constant pressure: 303.21 ± 17 J/K/mol
339.89 K, x1 = 0.375
  molar heat capacity at constant pressure: 336.4 ± 19 J/K/mol
339.89 K, x1 = 0.5
  molar heat capacity at constant pressure: 369.66 ± 21 J/K/mol
339.89 K, x1 = 0.625
  molar heat capacity at constant pressure: 405.29 ± 23 J/K/mol
339.89 K, x1 = 0.75
  molar heat capacity at constant pressure: 437.97 ± 25 J/K/mol
347.29 K, x1 = 1
  molar heat capacity at constant pressure: 500.66 ± 29 J/K/mol
357.17 K, x1 = 1
  molar heat capacity at constant pressure: 508.53 ± 29 J/K/mol
367.05 K, x1 = 1
  molar heat capacity at constant pressure: 517.23 ± 29 J/K/mol
376.92 K, x1 = 1
  molar heat capacity at constant pressure: 523.85 ± 30 J/K/mol
386.8 K, x1 = 1
  molar heat capacity at constant pressure: 531.72 ± 30 J/K/mol
